Experimental findings from US6407097B1, “Methoximinomethyloxathiazines” (Bayer Aktiengesellschaft, priority 1998, dated 2002) are described below.

Test system in one data set: not listed separately
In words: logP by HPLC (EEC directive 79/831 Annex V. A8, gradient method). It is filed as physicochemical. The note with it: starting materials/intermediates, read-out: HPLC: log P.
On to `CON=C1C(=NOCCSC(C)=O)Oc2ccccc21` (single isomer, unassigned) [VI-1 Isomer B, S-[2-(3-methoxyimino-3H-benzofuran-2-ylideneaminooxy)-ethyl]thioacetate], for which the chromatographic logP was determined as 3.18. Turning to `CON=C(C1=NOCCS1)c1ccccc1O` [II-1, (5,6-dihydro-[1,4,2]oxathiazin-3-yl)-(2-hydroxyphenyl)-methanone O-methyloxime], the chromatographic logP was determined as 1.75. Consider `CON=C1C(=NOCCSC(C)=O)Oc2ccccc21` (single isomer, unassigned) [VI-1 Isomer A, S-[2-(3-methoxyimino-3H-benzofuran-2-ylideneaminooxy)-ethyl]thioacetate], for which the chromatographic logP turned out to be 3.01.

For the molecule `CON=C1C(=NOCCBr)Oc2ccccc21` (single isomer, unassigned) [VII-1 Isomer A, benzofuran-2,3-dione 2-[O-(2-bromoethyl)-oxime] 3-(O-methyloxime)], the chromatographic logP is 3.08. On to `CON=C1C(=NOCCBr)Oc2ccccc21` (single isomer, unassigned) [VII-1 Isomer B, benzofuran-2,3-dione 2-[O-(2-bromoethyl)-oxime] 3-(O-methyloxime)], for which the chromatographic logP worked out at 3.23. For the molecule `CON=C(C1=NOCCS1)c1ccccc1Oc1ncnc(F)c1F` [IV-1, [2-(5,6-difluoro-pyrimidine-4-yloxy)-phenyl]-(5,6-dihydro-[1,4,2]oxathiazin-3-yl)-methanone O-methyloxime], the chromatographic logP amounted to 2.8.

For a further data set, the system named is Sphaerotheca fuliginea. In words: Sphaerotheca test (cucumber)/protective. Type of data set: in vivo. Conditions: protective, application rate 100 g/ha, evaluation 10 days after inoculation. On the procedure:
Sphaerotheca test (cucumber)/protective Solvent: 47 parts by weight of acetone Emulsifier: 3 parts by weight of alkylaryl polyglycol ether To produce a suitable preparation of active compound, 1 part by weight of active compound is mixed with the stated amounts of solvent and emulsifier, and the concentrate is diluted with water to the desired concentration. To test for protective activity, young plants are sprayed with the preparation of active compound at the stated application rate. After the spray coating has dried on, the plants are inoculated with an aqueous spore suspension of Sphaerotheca fuliginea. The plants are then placed in a greenhouse at approximately 23° C. and a relative atmospheric humidity of approximately 70%. Evaluation is carried out 10 days after the inoculation. 0% means an efficacy which corresponds to that of the control, whereas an efficacy of 100% means that no infection is observed.
The molecule `CON=C(C1=NOCCS1)c1ccccc1Oc1ncnc(Oc2ccccc2)c1F` [Example 1, (5,6-dihydro-[1,4,2]-oxathiazin-3-yl)-2-[(5-fluoro-6-phenoxy-pyrimidine-4-yloxy)-phenyl]-methanone O-methyloxime] gave an efficacy of at least 90%.
